# In patent US5237055A, “Chemical modification of 2"-amino group in elsamicin A” (Bristol-Myers Squibb Company, priority 1992, dated 1993):
# Structures can show the parent of a compound that is named as a salt.
# Assays:
# [1] = system: lymphocytic leukemia P388; assay: In vivo antitumor activity against P388 leukemia in mice; parameters: species or system mice (female CDF1); conditions: for prolongation of life-span in the P388-bearing mice / times less active than the parent compound in terms of minimum effective doses (MED): P388, Q1Dx3, ip; for times less active than the parent compound in terms of minimum effective doses (MED): relative to elsamicin A
# Protocol: (§1) Among the derivatives tested, in vivo antitumor activity of six derivatives showing relatively potent cytotoxicity was tested in the lymphocytic leukemia P388 and B16 melanoma systems. Female CDF1 (for P388) and male BDF1 (for B16) mice were inoculated by ip injection at 10^6 P388 cells and 0.5 ml of a 10% B16 brei per mouse, respectively (day 0). […] The percent increase of median survival time (MST) of treated animals over that of untreated control animals was determined and reported as T/C %. Compounds showing T/C % values of 125 or greater are considered to have significant antitumor activity. […] The others had no activity at the doses tested. Derivatives 4d, 4e, and 5 when tested in the B16 system, also gave 10-30 times less antitumor activity than elsamicin A in terms of MED (Table 5).
# [2] = system: murine melanoma B16-F10 cells; assay: cells; conditions: Mus musculus, B16-F10, 72 h, read-out: Cytotoxicity IC50
# Protocol: For in vitro cytotoxicity experiment, murine melanoma B16-F10 cells were grown and maintained in Eagle's minimum essential medium (Nissui), which contains kanamycin (60 μg/ml), supplemented with heat-inactivated fetal calf serum (10%) and nonessential amino acids (0.6%) at 37° C. under a humidified atmosphere in a 5% CO2 incubator. Exponentially growing B16-F10 cells were harvested, counted and suspended in the culture medium at the concentration of 2.0×10^4 cells/ml. The cell suspension (180 μl) was planted into wells of a 96-well microtiter plate and incubated for 24 hours. Test compounds (20 μl) were added to the wells and the plates were further incubated for 72 hours. The cytotoxic activity was colorimetrically determined at 540 nm after staining viable cells with neutral red solution.
# B16 melanoma = assay: In vivo antitumor activity against B16 melanoma in mice; parameters: species or system mice (male BDF1); conditions: B16, Q4Dx3 ip; relative to elsamicin A
# Protocol: as §1
Compound,"T/C % of MST ([1]; P388, 20 mg/kg/day, Q1Dx3, ip)",IC50 [2] [µg/mL],prolongation of life-span in the P388-bearing mice [1],times less active than the parent compound in terms of minimum effective doses (MED) [1],times less antitumor activity than elsamicin A in terms of MED (B16 melanoma)
"CO[C@@H]1[C@@H](N)[C@@H](O[C@H]2[C@H](Oc3cccc4c(O)c5c(=O)oc6ccc(C)c7c(=O)oc(c34)c5c67)O[C@H](C)[C@H](O)[C@]2(C)O)O[C@H](C)[C@@H]1O [Compound 1, Elsamicin A]",Tox,,,,
"CO[C@H]1[C@@H](O)[C@@H](C)O[C@H](O[C@H]2[C@H](Oc3cccc4c(O)c5c(=O)oc6ccc(C)c7c(=O)oc(c34)c5c67)O[C@H](C)[C@H](O)[C@]2(C)O)[C@@H]1NC(C)=O [Compound 3a, 2""-N-Acetylelsamicin A]",,55,,,
"CO[C@H]1[C@@H](O)[C@@H](C)O[C@H](O[C@H]2[C@H](Oc3cccc4c(O)c5c(=O)oc6ccc(C)c7c(=O)oc(c34)c5c67)O[C@H](C)[C@H](O)[C@]2(C)O)[C@@H]1NC(=O)CCC(=O)O [Compound 3b, 2""-N-(3-Carboxypropionyl)elsamicin A]",,56,,,
"CO[C@H]1[C@@H](O)[C@@H](C)O[C@H](O[C@H]2[C@H](Oc3cccc4c(O)c5c(=O)oc6ccc(C)c7c(=O)oc(c34)c5c67)O[C@H](C)[C@H](O)[C@]2(C)O)[C@@H]1NC(=O)CN [Compound 3d, 2""-N-Glycylelsamicin A]",,4.1,,,
"CO[C@H]1[C@@H](O)[C@@H](C)O[C@H](O[C@H]2[C@H](Oc3cccc4c(O)c5c(=O)oc6ccc(C)c7c(=O)oc(c34)c5c67)O[C@H](C)[C@H](O)[C@]2(C)O)[C@@H]1NC(C)C [Compound 4a, 2""-N-Isopropylelsamicin A]",,1.5,quite limited prolongation of life-span,10-30 times,
"CN[C@H]1[C@@H](O[C@H]2[C@H](Oc3cccc4c(O)c5c(=O)oc6ccc(C)c7c(=O)oc(c34)c5c67)O[C@H](C)[C@H](O)[C@]2(C)O)O[C@H](C)[C@H](O)[C@@H]1OC [Compound 4d, 2""-N-Methylelsamicin A]",,1.7,quite limited prolongation of life-span,10-30 times,10-30 times
"CO[C@H]1[C@@H](O)[C@@H](C)O[C@H](O[C@H]2[C@H](Oc3cccc4c(O)c5c(=O)oc6ccc(C)c7c(=O)oc(c34)c5c67)O[C@H](C)[C@H](O)[C@]2(C)O)[C@@H]1N(C)C [Compound 4e, 2""-N,N-Dimethylelsamicin A]",,0.36,quite limited prolongation of life-span,10-30 times,10-30 times
"CO[C@H]1[C@@H](O)[C@@H](C)O[C@H](O[C@H]2[C@H](Oc3cccc4c(O)c5c(=O)oc6ccc(C)c7c(=O)oc(c34)c5c67)O[C@H](C)[C@H](O)[C@]2(C)O)[C@@H]1N1CCOCC1 [Compound 4f, 2""-Deamino-2""-morpholinoelsamicin A]",,11,,,
"CO[C@H]1[C@@H](O)[C@@H](C)O[C@H](O[C@H]2[C@H](Oc3cccc4c(O)c5c(=O)oc6ccc(C)c7c(=O)oc(c34)c5c67)O[C@H](C)[C@H](O)[C@]2(C)O)[C@@H]1NC=N [Compound 5, 2""-N-Formimidoylelsamicin A hydrochloride]",,0.47,quite limited prolongation of life-span,10-30 times,10-30 times
